How the values were obtained:
[1] = test system: vasoconstriction of rat thoracic aorta induced by U-46619; assay: Vasoconstriction inhibitory action (U-46619-induced constriction of thoracic aorta spiral specimens); design: species or system long Evans rats; details: 10 min, pH 7.4, minimum concentration at which inhibition rate was 50% or more, 10 ng/ml U-46619, drug applied 10 minutes, 37° C., read-out: Vasoconstriction Inhibitory Action MIC
Description: Male and female long Evans rats having body weights of 150-200 g were used in this example. After sacrificing the animals by decapitation, the thoracic aorta was removed, and the outer membrane was peeled off to obtain I2 spiral specimens roughly 2 cm in length. Blood vessel specimens were warmed to 37° C. and preserved in a Magnus tube containing 10 ml of a nutrient solution aerated with 95% oxygen+5% carbon dioxide gas. The nutrient solution contained 118.3 mmol of NaCl, 4.7 mmol of KCl, […] of CaCl, 1.2 mmol of MgSO4, 1.2 mmol of KH2 PO4, 25 mmol of NaCHO3, 11.1 mmol of D-glucose, 0.03 mmol of EDTA along with 1 μg/ml each of atropin, phentolamine, mepiramine, cyproheptadine, propranolol and indometacin, and was adjusted to a pH of 7.4. Vasoconstriction was measured using an isometric transducer (Harward UF-1 Transducer and Sekonic SS-250F Graph recorder). An equilibration time of 3 hours was provided after the blood vessels were installed on the Magnus device, and fresh nutrient solution was replaced every 30 minutes during that time. […] of U-46619, having TXA2 action (to reach roughly 75% of maximum constriction), was applied for 30 minutes to constrict the vessels. The maximum stable constriction during this time was taken to be the control constriction (C1). Next, the blood vessels were washed several times with nutrient solution to remove the drug. After allowing a recovery period of 30 minutes, the test drugs were applied at various concentrations for 10 minutes followed by again constricting the vessels by applying 10 ng/ml of U-46619 for 30 minutes. The maximum stable constriction during this time was taken to be the constriction of the test drugs (C2). The inhibition rates of vasoconstriction induced by the drugs and U-46619 were determined according to the following formula, and the minimum concentration at which the inhibition rate was 50% or more was determined as the minimum inhibitory concentration (MIC).
((C1-C2)/C1)×100=Inhibition rate (%)

[2] = target: T1, Thromboxane A2 Receptor (Oryctolagus cuniculus, UniProt Q6WQI8); assay: Receptor binding experiment: Thromboxane A2 Receptor Binding Test ([3H]SQ29548, washed platelets); design: species or system New Zealand White rabbits; details: rabbit washed platelets; [3H]SQ29548 3 nM; 60 minutes at 25° C.; read-out: Binding Inhibitory Action IC50 (converted)
T1 sequence (Q6WQI8 1-233): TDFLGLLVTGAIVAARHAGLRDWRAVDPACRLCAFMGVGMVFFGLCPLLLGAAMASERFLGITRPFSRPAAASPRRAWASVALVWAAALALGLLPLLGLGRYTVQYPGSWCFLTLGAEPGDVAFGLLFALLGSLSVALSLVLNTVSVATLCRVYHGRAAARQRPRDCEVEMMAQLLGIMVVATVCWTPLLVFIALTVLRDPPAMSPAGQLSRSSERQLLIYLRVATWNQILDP
Description: Whole blood from New Zealand White rabbits was collected into a container containing ACD solution (1.175 g of sodium citrate, 0.685 g of citric acid, and 1 g of dextrose dissolved in 50 ml of distilled water) followed by centrifuging at room temperature for 10 minutes at 180 ×g to obtain platelet-rich plasma. Moreover, this platelet-rich plasma was further centrifuged at room temperature and 2800 ×g to result in sedimentation of the platelets. The platelets were resuspended in 50 mM Tris hydrochloric acid buffer solution (pH 7.2, containing […]) and again centrifuged at 4° C. for 15 minutes at 2800 ×g. This procedure was repeated twice to prepare the washed platelets, and adjusted to a final concentration of 10 mg/ml (wet weight). Tritium-labelled SQ29548 ([3H]SQ29548) was used for the TXA2 ligand. In an antagonism experiment, 20 μl of [3H]SQ29548 at a final concentration of 3 nM were added to 500 μl of a 10 mg/ml platelet suspension, together with adding 2.6 μl of the test drug dissolved in a suitable buffer. After incubating for 60 minutes at 25° C., the mixture was filtered over a glass filter using the Celherbster method, the filter was washed with 50 mM Tris hydrochloric acid buffer solution (3 ×4 ml), and radioactivity was measured with a scintillation counter to determine the amount of [3H]SQ29548 bound to the platelets. In addition, in a saturation test, 20 μl of [3H]SQ29548 were added to a final concentration of 0.1-50 nM followed by the addition of 2.6 μl of BM13505 at a final concentration of 1 μM in order to examine non-specific binding and carry out a binding experiment. The concentration of the test drug which inhibited binding of [3H]SQ29548 by 50% was determined as the IC50 value.

[3] = test system: platelet aggregation induced by U-46619 in human platelet-rich plasma (PRP); assay: Platelet aggregation inhibitory action (U-46619-induced, human platelet-rich plasma); assay type: cell-based; details: compounds added 1 minute before U-46619, turbidity
Description: Human whole blood drawn from the median cubital vein was centrifuged for 10 minutes at 800 rpm, and the upper portion was collected as platelet-rich plasma (PRP). […] The size of the aggregates were measured with a platelet aggregate measuring instrument (Hematracer 1, Nikko Bioscience) as the change in turbidity. The compounds were added 1 minute before addition of U-46619, and the concentration which inhibits aggregation by 50% was calculated as the IC50 value.

Compound	minimal effective concentration [1] [µg/mL]	IC50 [2] [µM]	IC50 [3] [µM]
Cc1ccc(S(=O)(=O)N[C@@H]2[C@H]3c4cccc(OCC(=O)O)c4O[C@H]3C[C@H]2O)cc1 (relative stereo) [(49), (1RS, 2RS, 3aSR, 8bRS)-1-(p-toluenesulfonamido)-2-hydroxy-2,3,3a,8b-tetrahydro-1H-cyclopenta[b]benzofuran-5-yloxyacetatic acid]	0.01	0.00882	0.022
O=C(O)COc1cccc2c1O[C@H]1C[C@@H](O)[C@H](NS(=O)(=O)c3ccc(F)cc3)[C@@H]21 (racemic) [(53), (1RS, 2RS, 3aSR, 8bRS)-1-(p-fluorobenzenesulfonamido)-2-hydroxy-2,3,3a,8b-tetrahydro-1H-cyclopenta[b]benzofuran-5-yloxyacetic acid]	0.05	0.021	0.033
COC(=O)COc1cccc2c1O[C@H]1C[C@@H](O)[C@H](NS(=O)(=O)c3ccccc3)[C@@H]21 (racemic) [(46), (1RS, 2RS, 3aSR, 8bRS)-1-benzenesulfonamido-2-hydroxy-2,3,3a,8b-tetrahydro-1H-cyclopenta[b]benzofuran-5-yloxyacetic acid methyl ester]	0.03	0.0231	0.068
O=C(O)Cc1cccc2c1O[C@H]1C[C@@H](O)[C@H](NS(=O)(=O)c3ccccc3)[C@@H]21 (racemic) [(41), (1RS, 2RS, 3aSR, 8bRS)-1-benzenesulfonamido-2-hydroxy-2,3,3a,8b-tetrahydro-1H-cyclopenta[b]benzofuran-5-acetic acid]	0.25	2.08	1.7
O=C(O)COc1cccc2c1O[C@H]1C[C@@H](O)[C@H](NS(=O)(=O)c3ccccc3)[C@@H]21 (racemic) [(47), (1RS, 2RS, 3aSR, 8bRS)-1-benzenesulfonamido-2-hydroxy-2,3,3a,8b-tetrahydro-1H-cyclopenta[b]benzofuran-5-yloxyacetic acid]	0.025	0.0074	0.018
O=C(O)COc1cccc2c1O[C@H]1CC[C@@H](NS(=O)(=O)c3ccccc3)[C@@H]21 (racemic) [(94), (1RS, 3aSR, 8bRS)-1-benzenesulfonamido-2,3,3a,8b-tetrahydro-1H-cyclopenta[b]benzofuran-5-yloxyacetic acid]	0.1	0.0167	0.068

Reference: patent US5496849A, “Sulfonic acid derivative and its pharmaceutical application” (Toray Industries, Inc., priority 1992, dated 1996)
